Measured values as given in patent EP4786454A1, “HETEROARYL DERIVATIVE AND USE THEREOF” (priority 2023, dated 2025).

What was measured:
[1] = Plasma protein binding rate, equilibrium dialysis (rat plasma); type: in vitro ADME, Sprague-Dawley rats; conditions: r (Sprague-Dawley rat plasma), dialysis 4 hours at 37 °C, read-out: Unbound PPB%
Protocol: (§1) The protein binding rates of the compounds in the plasma of CD-1 mice, Sprague-Dawley rats, beagle dogs, cynomolgus monkeys, and human were determined using equilibrium dialysis method.
(§2) Commercially available plasma, dual-layer dialysis membrane, and equilibrium dialysis device.
(§3) The dual-layer dialysis membrane was soaked in ultrapure water for about 1 hour, removed and then divided into two parts. It was then soaked in an ethanol:water (20:80, v:v) solution for 20 minutes or placed at 2 to 8 °C, and it was valid for 1 month. Before starting the assay, the dialysis membrane was rinsed twice with ultrapure water and then soaked in ultrapure water for another 20 minutes for later use.
(§4) On the day of assay, the frozen plasma of CD-1 mice, Sprague-Dawley rats, beagle dogs, cynomolgus monkeys, and human was thawed in running cold tap water. After the plasma was completely thawed, the plasma was centrifuged at 3220×g for 5 minutes, and the suspended substances and precipitates in it were removed. The pH of the plasma was determined. The plasma with a pH in the range of 7.4 ± 0.1 was directly used, or the plasma with a pH in the range of 7.4 ± 0.1 after an adjustment with 1% phosphoric acid or 1M sodium hydroxide was used.
(§5) Preparation process of plasma samples: 597 µL of blank plasma from each of the above five species was taken, respectively. 3 µL of a compound or warfarin working solution was added, and the mixture was mixed thoroughly to give a plasma sample with a compound concentration of 2 µM and a warfarin concentration of 2 µM (n=1). The concentration of the organic phase DMSO was 0.5%. The sample was thoroughly mixed before proceeding to the next step.
(§6) Preparation process of T0 samples: 50 µL of a plasma sample containing the compound and warfarin was transferred to a sample receiving plate (n=3), and 50 µL of blank PBS was immediately added. Then, 500 µL of stop solution was added to the T0 sample of the compound and warfarin, and the mixture was stored at 2 to 8 °C, waiting to be processed later together with other dialysis-processed samples.
(§7) Dialysis process of plasma samples: 100 µL of a compound (2 µM) and warfarin (2 µM) plasma sample was added to the donor of each dialysis well (n=3), and 100 µL of blank PBS was added to the corresponding receiver of the dialysis well. The dialysis plate was placed in a 5% CO2 incubator, and incubated at 37 °C with shaking at approximately 100 rpm for 4 hours.
(§8) After the dialysis was completed, 50 µL of dialysis-processed PBS sample and dialysis-processed plasma sample (n=3) were transferred to a new 96-well plate (sample receiving plate). The corresponding volume of the corresponding blank plasma or PBS was added to the sample to make the final volume of each sample well 100 µL, with a plasma to PBS volume ratio of 1:1. All the samples were analyzed by LC-MS/MS after protein precipitation.
(§9) The formulas for calculating the unbound fraction (%Unbound), bound fraction (%Bound) and recovery fraction (%Recovery) of a compound are as follows: %Unbound = 100 ×F / T %Bound = 100 - %Unbound %Recovery = 100 ×(F + T)/ T0 wherein F is the concentration of the compound at the receiver of dialysis; T is the concentration of the compound at the supply end of dialysis; and T0 is the concentration of the compound in the plasma at time zero.

[2] = Plasma protein binding rate, equilibrium dialysis (mouse plasma); type: in vitro ADME, CD-1 mice; conditions: m (CD-1 mouse plasma), dialysis 4 hours at 37 °C, read-out: Unbound PPB%
Protocol: as §1, §2, §3, §4, §5, §6, §7, §8, §9

[3] = Stability in liver microsomes (monkey); type: in vitro ADME, cynomolgus monkeys; conditions: c (cynomolgus monkey liver microsomes), 0.5 mg/mL, read-out: MMS Clint
Protocol: The purpose of this study was to evaluate the phase I metabolic stability of the assay sample in liver microsomes from CD-1 mice, Sprague-Dawley (SD) rats, beagle dogs, cynomolgus monkeys, and human.
The animal and human liver microsomes used in this assay system were purchased from Xenotech, Corning, or other qualified suppliers.
Preparation of buffer: 73.21 g of potassium phosphate dibasic trihydrate and 10.78 g of potassium dihydrogen phosphate were dissolved in 4000 mL of ultrapure water. The pH of the solution was adjusted to the range of 7.40 ± 0.10 using 10.0% phosphoric acid or 1.00 M potassium hydroxide. Its final concentration was 100 mM.
Preparation of working solutions: An assay sample powder was prepared into a 10.0 mM stock solution with DMSO, and then further diluted with a suitable organic solvent. The control compounds testosterone, diclofenac, and propafenone were prepared into 10.0 mM stock solutions using DMSO, and then further diluted with a suitable organic solvent.
Preparation of liver microsome solution: Microsomes of various species were diluted with 100 mM potassium phosphate buffer to a working solution of 0.56 mg/mL. The final concentration of microsomes in the reaction system was 0.500 mg/mL. Detailed preparation procedures were described in the experimental records.
Preparation of reduced nicotinamide adenine dinucleotide phosphate (NADPH) solution: An appropriate amount of reduced nicotinamide adenine dinucleotide phosphate was dissolved in magnesium chloride solution, and the mixture was shaken to mix well. The final concentrations in the reaction system were 1.00 mM NADPH and 1.00 mM magnesium chloride, respectively. Detailed preparation procedures were described in the experimental records.
Preparation of stop solution: The stop solution was prepared using acetonitrile containing internal standards (tolbutamide and labetalol). The prepared stop solution was stored at 2.0 to 8.0 °C in a refrigerator. Detailed preparation procedures were described in the experimental records. […]

Row | Structure (SMILES) | fraction unbound at 4 h, 2 µM [1] | fraction unbound at 4 h, 2 µM [2] | CLint scaled at 1 µM [3]
1 | CC(C)(C)CC(=O)Nc1nc2c(F)cc(C#N)cn2c1-c1ccc(OC(F)(F)F)cc1 [Compound 1] | 0.071 | 0.047 | 130 mL/min/kg
2 | CC(C)(C)CC(=O)Nc1nc2c(F)cc(C#N)cn2c1C1=CCCC1 [Compound 3] | 0.097 | 0.087 | 129 mL/min/kg
3 | CC(C)(C)CC(=O)Nc1nc2c(F)cc(C#N)cn2c1C12CC(C1)C2 [Compound 5] | 0.166 | 0.141 | 15.3 mL/min/kg
